Experimental data reported in publication PMC12281424, “A Rac-specific competitive inhibitor of guanine nucleotide binding reduces metastasis in triple-negative breast cancer” (Cell Reports Medicine, 2025).

Experiments:
[1] = biological target: Lck(h) (Homo sapiens, UniProt P06239); assay: Kinase Profiler; type: biochemical
Procedure: (§1) The kinase profiler was performed by the company Eurofins (Discovery, Panlab and Cerep).

[2] = Ames fluctuation test (1st group); type: cell-based
Excerpt: Data S3. Ames-fluctuation assay-A41.
Test Concentration Count Positive Significance Fisher Exact Test
(# of wells) (- to +++) (p-value)
Ames fluctuation test (TA100 + S9

[3] = biological target: RIPK1(h) (Homo sapiens, UniProt Q13546); assay: Kinase Profiler; type: biochemical
Procedure: as §1

[4] = biological target: PKCγ(h) (Homo sapiens, UniProt P05129); assay: Kinase Profiler; type: biochemical
Procedure: as §1

[5] = biological target: TNIK(h) (Homo sapiens, UniProt Q9UKE5); assay: Kinase Profiler; type: biochemical
Chain of TNIK(h) (Q9UKE5 whole entry): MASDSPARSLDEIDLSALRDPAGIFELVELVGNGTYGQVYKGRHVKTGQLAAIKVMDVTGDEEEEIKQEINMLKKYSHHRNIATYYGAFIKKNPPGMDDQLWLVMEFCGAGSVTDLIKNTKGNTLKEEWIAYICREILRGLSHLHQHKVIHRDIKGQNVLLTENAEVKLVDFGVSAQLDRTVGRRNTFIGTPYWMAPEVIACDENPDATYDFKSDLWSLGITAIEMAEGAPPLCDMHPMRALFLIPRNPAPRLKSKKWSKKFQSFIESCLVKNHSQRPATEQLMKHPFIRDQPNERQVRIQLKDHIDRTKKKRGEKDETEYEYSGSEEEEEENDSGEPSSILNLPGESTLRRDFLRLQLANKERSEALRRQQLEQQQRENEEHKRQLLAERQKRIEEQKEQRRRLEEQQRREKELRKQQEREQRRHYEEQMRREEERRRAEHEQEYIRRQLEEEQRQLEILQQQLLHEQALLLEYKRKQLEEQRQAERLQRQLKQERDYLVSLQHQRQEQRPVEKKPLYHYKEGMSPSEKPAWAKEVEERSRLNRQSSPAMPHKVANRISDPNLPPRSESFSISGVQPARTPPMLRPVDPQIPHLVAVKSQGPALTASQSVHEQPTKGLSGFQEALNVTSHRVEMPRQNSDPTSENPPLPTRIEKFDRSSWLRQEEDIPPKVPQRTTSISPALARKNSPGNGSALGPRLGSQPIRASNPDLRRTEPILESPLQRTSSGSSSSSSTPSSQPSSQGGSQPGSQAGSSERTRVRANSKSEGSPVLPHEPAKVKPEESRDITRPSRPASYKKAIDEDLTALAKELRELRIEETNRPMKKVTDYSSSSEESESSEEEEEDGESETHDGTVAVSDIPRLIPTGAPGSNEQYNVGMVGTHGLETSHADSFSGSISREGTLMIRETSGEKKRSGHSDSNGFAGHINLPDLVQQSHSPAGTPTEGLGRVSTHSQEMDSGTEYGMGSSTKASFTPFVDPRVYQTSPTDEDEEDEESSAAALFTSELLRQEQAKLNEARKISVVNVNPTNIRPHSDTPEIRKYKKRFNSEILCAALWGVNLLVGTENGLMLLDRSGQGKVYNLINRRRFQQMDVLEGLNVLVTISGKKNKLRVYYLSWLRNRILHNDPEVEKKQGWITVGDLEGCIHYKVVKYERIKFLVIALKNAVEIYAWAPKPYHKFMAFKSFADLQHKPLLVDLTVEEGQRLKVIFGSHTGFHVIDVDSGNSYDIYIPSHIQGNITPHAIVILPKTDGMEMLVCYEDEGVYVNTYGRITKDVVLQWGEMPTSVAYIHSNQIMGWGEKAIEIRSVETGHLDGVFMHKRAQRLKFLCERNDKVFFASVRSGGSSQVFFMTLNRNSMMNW
Procedure: as §1

[6] = biological target: FGFR2(N549H)(h) (Homo sapiens, UniProt P21802, N549H); assay: Kinase Profiler; type: biochemical
Chain of FGFR2(N549H)(h) (P21802 22-821 N549H): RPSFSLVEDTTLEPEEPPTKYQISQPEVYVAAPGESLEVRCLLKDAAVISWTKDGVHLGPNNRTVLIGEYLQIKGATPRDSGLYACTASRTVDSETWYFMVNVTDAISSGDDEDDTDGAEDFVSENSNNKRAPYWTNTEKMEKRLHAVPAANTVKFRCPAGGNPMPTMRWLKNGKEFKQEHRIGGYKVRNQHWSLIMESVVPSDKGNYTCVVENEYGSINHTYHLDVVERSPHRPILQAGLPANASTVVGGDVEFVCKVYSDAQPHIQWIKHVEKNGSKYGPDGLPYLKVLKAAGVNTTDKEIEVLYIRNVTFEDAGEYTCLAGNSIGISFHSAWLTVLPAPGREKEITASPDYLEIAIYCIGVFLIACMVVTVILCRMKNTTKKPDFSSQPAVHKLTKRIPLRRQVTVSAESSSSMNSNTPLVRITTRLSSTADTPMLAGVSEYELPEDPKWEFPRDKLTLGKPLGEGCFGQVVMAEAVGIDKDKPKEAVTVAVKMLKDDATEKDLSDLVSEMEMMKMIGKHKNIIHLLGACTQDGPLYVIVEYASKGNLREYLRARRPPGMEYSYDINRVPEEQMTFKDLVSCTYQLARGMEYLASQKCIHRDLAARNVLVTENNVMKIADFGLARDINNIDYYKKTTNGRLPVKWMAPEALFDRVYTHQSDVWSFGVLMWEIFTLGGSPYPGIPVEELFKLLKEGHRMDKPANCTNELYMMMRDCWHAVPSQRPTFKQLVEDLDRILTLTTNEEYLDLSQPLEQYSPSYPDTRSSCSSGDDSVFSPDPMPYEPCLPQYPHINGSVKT
Procedure: as §1

[7] = biological target: Rsk2(h) (Homo sapiens, UniProt P51812); assay: Kinase Profiler; type: biochemical
Chain of Rsk2(h) (P51812 whole entry): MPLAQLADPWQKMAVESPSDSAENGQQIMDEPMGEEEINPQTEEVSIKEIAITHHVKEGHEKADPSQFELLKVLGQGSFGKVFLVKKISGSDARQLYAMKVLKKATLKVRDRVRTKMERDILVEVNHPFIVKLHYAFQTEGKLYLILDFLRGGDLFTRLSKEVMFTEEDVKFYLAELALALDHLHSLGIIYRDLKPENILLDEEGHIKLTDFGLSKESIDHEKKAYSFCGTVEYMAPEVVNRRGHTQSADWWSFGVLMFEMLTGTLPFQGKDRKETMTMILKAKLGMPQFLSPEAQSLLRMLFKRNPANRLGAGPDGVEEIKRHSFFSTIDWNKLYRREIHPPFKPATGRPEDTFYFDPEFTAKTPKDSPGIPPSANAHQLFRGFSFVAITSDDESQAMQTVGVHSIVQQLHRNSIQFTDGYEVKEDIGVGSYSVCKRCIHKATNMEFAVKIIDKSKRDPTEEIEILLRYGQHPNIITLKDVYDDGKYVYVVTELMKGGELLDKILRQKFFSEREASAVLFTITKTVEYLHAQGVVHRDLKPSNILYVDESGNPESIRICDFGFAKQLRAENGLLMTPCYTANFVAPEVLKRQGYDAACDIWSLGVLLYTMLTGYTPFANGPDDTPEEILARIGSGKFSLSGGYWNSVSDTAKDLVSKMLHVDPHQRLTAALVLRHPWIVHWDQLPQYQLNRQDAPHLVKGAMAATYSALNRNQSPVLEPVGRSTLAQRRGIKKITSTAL
Procedure: as §1

[8] = biological target: MST3(h) (Homo sapiens, UniProt Q9Y6E0); assay: Kinase Profiler; type: biochemical
Procedure: as §1

[9] = biological target: PI3K (p120g)(h) (Homo sapiens, UniProt P48736); assay: Kinase Profiler; type: biochemical
Procedure: (§2) Blood cell counts, kinase profiler, safety screen, bacterial cytotoxicity, Ames, micronucleus assays were performed by the company Eurofins (France). The kinase profiler was performed by the company Eurofins (Discovery, Panlab and Cerep).

[10] = biological target: Adrenergic α1B (Rattus norvegicus, UniProt P15823); assay: Safety screen; type: binding
Procedure: Blood cell counts, kinase profiler, safety screen, bacterial cytotoxicity, Ames, micronucleus assays were performed by the company Eurofins (France).

[11] = biological target: Bradykinin B2 (Homo sapiens, UniProt P30411); assay: Safety screen; type: binding
Chain of Bradykinin B2 (P30411 whole entry): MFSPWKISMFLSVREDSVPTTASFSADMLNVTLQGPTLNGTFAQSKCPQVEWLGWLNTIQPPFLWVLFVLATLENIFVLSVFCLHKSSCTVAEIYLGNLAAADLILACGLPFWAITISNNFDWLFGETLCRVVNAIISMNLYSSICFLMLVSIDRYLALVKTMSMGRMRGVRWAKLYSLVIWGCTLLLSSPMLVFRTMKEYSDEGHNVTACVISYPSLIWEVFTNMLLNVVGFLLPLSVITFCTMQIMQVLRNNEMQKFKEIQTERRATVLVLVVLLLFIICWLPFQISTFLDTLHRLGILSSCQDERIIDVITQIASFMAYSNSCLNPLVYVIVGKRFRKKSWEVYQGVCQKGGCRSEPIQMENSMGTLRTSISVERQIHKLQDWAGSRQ
Procedure: as §2

[12] = biological target: Txk(h) (Homo sapiens, UniProt P42681); assay: Kinase Profiler; type: biochemical
Procedure: as §2

[13] = biological target: GRK5(h) (Homo sapiens, UniProt P34947); assay: Kinase Profiler; type: biochemical
Procedure: as §2

[14] = biological target: Cyclooxygenase COX-1 (Homo sapiens, UniProt P23219); assay: Safety screen; type: biochemical
Procedure: as §2

[15] = biological target: TAF1L(h) (Homo sapiens, UniProt Q8IZX4); assay: Kinase Profiler; type: biochemical
Procedure: as §1

[16] = biological target: CRIK(h) (Homo sapiens, UniProt O14578); assay: Kinase Profiler; type: biochemical
Procedure: as §1

[17] = biological target: PI3KC2g(h) (Homo sapiens, UniProt O75747); assay: Kinase Profiler; type: biochemical
Procedure: as §1

[18] = biological target: PIP5K1a(h) (Homo sapiens, UniProt Q99755); assay: Kinase Profiler; type: biochemical
Procedure: as §1

[19] = biological target: Met(Y1248D)(h) (Homo sapiens, UniProt P08581, Y1230D); assay: Kinase Profiler; type: biochemical
Procedure: as §1

[20] = biological target: PKCβII(h) (Homo sapiens, UniProt P05771); assay: Kinase Profiler; type: biochemical
Procedure: as §1

[21] = biological target: Pyk2(h) (Homo sapiens, UniProt Q14289); assay: Kinase Profiler; type: biochemical
Chain of Pyk2(h) (Q14289 whole entry): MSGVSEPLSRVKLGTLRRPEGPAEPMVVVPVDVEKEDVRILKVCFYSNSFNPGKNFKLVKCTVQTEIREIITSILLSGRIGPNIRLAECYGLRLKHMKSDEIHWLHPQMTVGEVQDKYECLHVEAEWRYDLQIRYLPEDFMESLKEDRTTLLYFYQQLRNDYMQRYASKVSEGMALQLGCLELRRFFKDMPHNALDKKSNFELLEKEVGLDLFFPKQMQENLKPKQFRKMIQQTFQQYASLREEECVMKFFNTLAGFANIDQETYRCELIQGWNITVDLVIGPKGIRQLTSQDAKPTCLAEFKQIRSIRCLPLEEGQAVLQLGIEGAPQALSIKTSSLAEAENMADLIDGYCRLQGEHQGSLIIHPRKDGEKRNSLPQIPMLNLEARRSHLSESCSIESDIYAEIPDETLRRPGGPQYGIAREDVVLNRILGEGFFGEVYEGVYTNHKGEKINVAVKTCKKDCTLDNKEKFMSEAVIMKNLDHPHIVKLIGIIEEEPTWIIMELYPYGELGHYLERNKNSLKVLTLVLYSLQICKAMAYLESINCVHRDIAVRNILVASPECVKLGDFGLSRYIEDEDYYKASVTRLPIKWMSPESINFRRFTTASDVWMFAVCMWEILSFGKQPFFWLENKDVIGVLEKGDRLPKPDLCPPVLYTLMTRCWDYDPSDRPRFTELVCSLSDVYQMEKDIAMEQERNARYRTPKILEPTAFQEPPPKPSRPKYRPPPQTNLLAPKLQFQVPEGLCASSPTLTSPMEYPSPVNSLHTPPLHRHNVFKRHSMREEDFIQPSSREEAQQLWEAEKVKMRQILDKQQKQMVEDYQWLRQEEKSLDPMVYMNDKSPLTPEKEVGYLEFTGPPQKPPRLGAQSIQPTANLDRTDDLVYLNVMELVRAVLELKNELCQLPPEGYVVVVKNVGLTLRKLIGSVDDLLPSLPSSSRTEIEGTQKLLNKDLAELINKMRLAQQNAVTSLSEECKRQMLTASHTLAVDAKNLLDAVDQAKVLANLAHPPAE
Procedure: as §1

[22] = biological target: Potassium Channel hERG (Homo sapiens, UniProt Q12809); assay: Safety screen; type: binding
Procedure: as §2

[23] = test system: NIH/3T3 cell adhesion; assay: Cell adhesion assay (xCELLigence impedance); type: cell-based; conditions: 10^-5 M
Procedure: NIH3T3cells (10000/well) were seeded in a 96 well plate microtiter xCELLigence assay plate (E-Plate) (ACEA Biosciences Inc.) and placed on the Real-time xCELLigence Cell Analyzer (Roche Applied Science) platform at 37°C to measure the “cell index” every 5 min for a period of 6 h. The cell index unit is defined as (Rn − Rb)/15. Rn is the cell electrode impedance of the well when it contains cells. Rb is the background impedance of the well with the media alone.
Supplementary Fig. 3: Example of one pharmacophore model used for virtual screening. (a) The pharmacophore model shown was created based on RAC1 (grey) and NSC23766 (orange) interaction. […] (b) Impact of different screening molecules (10^-5 M) on NIH/3T3 cell adhesion (xCELLingence Real-time cellanalysis, Agilent), migration (CYTOO Mobility plates) and proliferation (xCELLingence Real-time cell analysis, Agilent) .The level of RAC activation is determinedby the detection of RAC-GTP (pull-down assay) in NIH/3T3 cell treated with EGF (10 ng/mL) and the differentmolecules and normalize to the level of RAC activity measuredin the presenceof the reference RAC inhibitor EHT1864.
Supplementary Fig. 4: A41 inhibits RAC-dependent cell functions. (a) Representative records of single NIH/3T3 cell migration on micropatterned fibronectin lines (CYTOO Mobility plates) in the absence (Control)and presenceA41 at 10^-5 M (left panel) and corresponding quantification of migration speed (right panel) (scale bar: 20µm). […] (b) Typical curves showing the cell index representing the adhesion of NIH/3T3 fibroblast (xCELLingence Real-time cell analysis, Agilent) under control condition (Control) and pre-treated with 10 µM A41 or NSC23766 (left panel) and corresponding quantification of cell adhesion speed (right panel). […]

Chain of Lck(h) (P06239 whole entry): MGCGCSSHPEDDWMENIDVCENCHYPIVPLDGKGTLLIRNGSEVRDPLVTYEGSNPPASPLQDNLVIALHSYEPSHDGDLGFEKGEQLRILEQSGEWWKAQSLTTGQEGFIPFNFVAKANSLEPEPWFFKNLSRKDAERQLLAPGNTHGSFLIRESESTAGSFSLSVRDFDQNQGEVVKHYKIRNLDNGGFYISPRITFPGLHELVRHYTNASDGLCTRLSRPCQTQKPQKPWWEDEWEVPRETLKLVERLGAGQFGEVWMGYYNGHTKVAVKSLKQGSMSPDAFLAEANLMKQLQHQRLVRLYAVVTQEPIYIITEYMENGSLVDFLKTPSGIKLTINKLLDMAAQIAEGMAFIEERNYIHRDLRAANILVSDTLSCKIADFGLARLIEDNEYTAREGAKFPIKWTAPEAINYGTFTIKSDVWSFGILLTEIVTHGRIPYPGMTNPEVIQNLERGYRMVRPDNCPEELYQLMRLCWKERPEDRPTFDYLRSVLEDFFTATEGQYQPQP

COc1ccc(OC)c(NS(=O)(=O)c2ccc(NC(=O)CCSc3ccc(C)cc3)cc2)c1 [Compound A41]
Activity(%) [1]: 74%
Count Positive (# of wells) ([2]; 1.0E-04 M): 1
Count Positive (# of wells) ([2]; 1.0E-05 M): 2
Count Positive (# of wells) ([2]; 5.0E-05 M): 0
Count Positive (# of wells) ([2]; 5.0E-06 M): 0
Activity(%) [3]: 98%
Activity(%) [4]: 112%
Activity(%) [5]: 94%
Activity(%) [6]: 105%
Activity(%) [7]: 86%
Activity(%) [8]: 95%
Activity(%) [9]: 104%
% inh. [10]: 41%
% inh. [11]: 1%
Activity(%) [12]: 118%
Activity(%) [13]: 101%
% inh. [14]: -11%
Activity(%) [15]: 110%
Activity(%) [16]: 106%
Activity(%) [17]: 114%
Activity(%) [18]: 100%
Activity(%) [19]: 118%
Activity(%) [20]: 97%
Activity(%) [21]: 92%
% inh. [22]: 22%
cell adhesion [23]: efficiently inhibited both functions
